From ChEMBL document CHEMBL4665725, “Identification of potent inhibitors of the sortilin-progranulin interaction” (Bioorg Med Chem Lett, 2020)
≈ marks a conversion by molar mass, not a printed value.

Assays:
Sortilin/Progranulin [1] = biological target: T1, Sortilin/Progranulin (Homo sapiens, UniProt P28799+Q99523); assay: Inhibition of SORT1 (unknown origin)-GRN (unknown origin) protein-protein interaction by HTRF assay
T1 sequence (Q99523 whole entry): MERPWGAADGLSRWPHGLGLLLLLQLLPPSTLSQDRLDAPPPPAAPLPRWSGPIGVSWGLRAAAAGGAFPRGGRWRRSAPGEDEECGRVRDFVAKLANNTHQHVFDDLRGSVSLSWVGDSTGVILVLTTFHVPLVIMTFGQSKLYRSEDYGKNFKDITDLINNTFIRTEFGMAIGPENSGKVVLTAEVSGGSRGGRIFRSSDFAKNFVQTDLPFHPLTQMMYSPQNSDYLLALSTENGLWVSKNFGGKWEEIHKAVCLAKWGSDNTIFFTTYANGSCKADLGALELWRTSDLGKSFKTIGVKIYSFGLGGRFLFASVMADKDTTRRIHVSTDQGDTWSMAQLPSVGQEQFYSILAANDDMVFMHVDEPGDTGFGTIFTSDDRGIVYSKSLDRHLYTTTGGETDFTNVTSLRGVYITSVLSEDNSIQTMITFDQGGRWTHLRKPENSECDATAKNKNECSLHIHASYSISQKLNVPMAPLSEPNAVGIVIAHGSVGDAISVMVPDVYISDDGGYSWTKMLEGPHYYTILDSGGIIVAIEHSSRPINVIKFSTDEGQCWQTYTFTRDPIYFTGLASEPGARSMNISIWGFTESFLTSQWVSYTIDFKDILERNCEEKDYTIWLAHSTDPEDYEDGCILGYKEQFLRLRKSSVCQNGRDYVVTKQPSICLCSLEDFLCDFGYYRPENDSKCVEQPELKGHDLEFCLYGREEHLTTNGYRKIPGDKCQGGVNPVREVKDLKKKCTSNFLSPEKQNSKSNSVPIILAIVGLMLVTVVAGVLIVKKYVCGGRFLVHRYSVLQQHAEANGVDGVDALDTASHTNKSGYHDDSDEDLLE
T1 sequence (P28799 whole entry): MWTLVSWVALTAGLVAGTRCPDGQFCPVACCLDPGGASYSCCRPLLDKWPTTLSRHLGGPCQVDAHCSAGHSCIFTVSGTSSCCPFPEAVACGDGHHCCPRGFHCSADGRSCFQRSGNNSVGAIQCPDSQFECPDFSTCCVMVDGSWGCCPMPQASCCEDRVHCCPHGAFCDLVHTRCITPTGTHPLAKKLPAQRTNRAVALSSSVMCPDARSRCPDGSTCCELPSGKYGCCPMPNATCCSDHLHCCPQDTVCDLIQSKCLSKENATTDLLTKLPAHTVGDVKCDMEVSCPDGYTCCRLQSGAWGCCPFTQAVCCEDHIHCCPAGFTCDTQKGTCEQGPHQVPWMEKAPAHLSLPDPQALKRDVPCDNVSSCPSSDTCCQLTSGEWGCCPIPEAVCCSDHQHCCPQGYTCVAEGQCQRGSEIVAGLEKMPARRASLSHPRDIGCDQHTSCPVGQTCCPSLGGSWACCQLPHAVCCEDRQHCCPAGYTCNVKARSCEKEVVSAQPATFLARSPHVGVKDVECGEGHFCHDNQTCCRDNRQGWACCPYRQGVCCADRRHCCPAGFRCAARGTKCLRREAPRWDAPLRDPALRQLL

[2] = Half life in rat; type: ADME; details: in vivo
[3] = Unbound clearance in rat; type: ADME; details: in vivo
[4] = Solubility of the compound at pH 7; type: physicochemical; details: buffer
P-gp [5] = assay: Substrate activity at rat P-gp assessed as efflux ratio; type: ADME; details: not told
[6] = Clearance in rat; type: ADME; details: in vivo
Sortilin/Progranulin [7] = biological target: T1, Sortilin/Progranulin; assay: Inhibition of SORT1 (unknown origin)-GRN (unknown origin) protein-protein interaction assessed as increase in progranulin level by cell-based ELISA
P-gp [8] = assay: Substrate activity at human P-gp in MDR1 cells assessed as efflux ratio; type: ADME, cell-based
[9] = Protein binding in rat plasma; type: ADME, cell-free; details: read-out: PPB (converted)
[10] = Solubility of the compound at pH 2; type: physicochemical; details: buffer
[11] = Oral bioavailability in rat; type: ADME, organism-based; details: in vivo
[12] = Apparent permeability of the compound; type: ADME; details: not told

Compound	IC50 (Sortilin/Progranulin [1])	other results
Cn1nc(C(C)(C)C)cc1C(=O)O	8.3 µM	–
CC(C)C[C@H](NC(=O)c1cnc2ccccc2n1)C(=O)O	6.3 µM	–
CC(C)(C)CC[C@H](NC(=O)c1cc(Cl)cc(Cl)c1)C(=O)O	0.17 µM	half-life [2]: 5.9 h; CL free [3]: 215 mL/min/kg; solubility [4]: 134 µM (≈ 44.5 µg/mL); efflux ratio (P-gp [5]): 3.9; clearance [6]: 0.6 mL/min/kg; IC50 (Sortilin/Progranulin [7]): 0.65 µM; efflux ratio (P-gp [8]): 1.8; fraction unbound [9]: 0.0028; solubility [10]: 69 µM (≈ 22.9 µg/mL); bioavailability [11]: 100%; Papp [12]: 23 ×10⁻⁶ cm/s
CC(C)(C)c1cc(C(=O)O)n(-c2ccccc2)n1	7.8 µM	–
O=C(N[C@@H](CC12CC(C1)C2)C(=O)O)c1cc(Cl)cc(Cl)c1	18 µM	–
CC(C)(C)CCc1cc(C(=O)O)n(Cc2ccccc2)n1	> 67 µM	–
CC(C)(C)c1cc(C(=O)O)n(CCc2ccccc2)n1	5.3 µM	–
O=C(N[C@@H](CC1CCCCC1)C(=O)O)c1cc(Cl)cc(Cl)c1	2.3 µM	–
O=C(N[C@@H](CC1CC1)C(=O)O)c1cc(Cl)cc(Cl)c1	10.7 µM	–
CC(C)(C)C[C@H](NC(=O)c1cc(Cl)cc(Cl)c1)C(=O)O	0.35 µM	–
CC(C)C[C@H](NC(=O)C(C)(C)Cc1ccc(Cl)cc1)C(=O)O	6.8 µM	–
CC(C)C[C@H](NC(=O)c1cnn(C)c1)C(=O)O	5.3 µM	–
CC(C)(C)c1cc(C(=O)O)n(Cc2ccc(Oc3ccccc3)nc2)n1	2.1 µM	–
CC(C)(C)c1cc(C(=O)O)n(Cc2cc(Cl)cc(Cl)c2)n1	2.1 µM	–
CC(C)C[C@H](NC(=O)c1ccc(Cl)c(Cl)c1)C(=O)O	4.3 µM	–
CC(C)C[C@H](NC(c1cc(Cl)cc(Cl)c1)C(F)(F)F)C(=O)O (stereo not given in full)	10.8 µM	–
CC(C)(C)Cc1cc(C(=O)O)n(Cc2ccccc2)n1	6.6 µM	–
CC(C)(C)CC(NC(=O)c1cc(Cl)cc(Cl)c1)c1nn[nH]n1 (racemic)	6.9 µM	–

The next lines start with results.

IC50 (Sortilin/Progranulin [1])	Compound	other results
6.8 µM	COc1cccc(C(=O)N[C@@H](CC(C)C)C(=O)O)c1	–
25.3 µM	CC(C)C[C@H](NC(=O)C1CCCC1)C(=O)O	–
17.1 µM	C=C(C)C[C@H](NC(=O)c1cc(Cl)cc(Cl)c1)C(=O)O	–
14.4 µM	CC(C)C[C@H](NC(=O)C1CN(Cc2cc(Cl)cc(Cl)c2)CCO1)C(=O)O (stereo not given in full)	–
2 µM	CC(C)(C)c1cc(C(=O)O)n(Cc2ccccc2)n1	–
1.5 µM	CC(C)(C)OC[C@H](NC(=O)c1cc(Cl)cc(Cl)c1)C(=O)O	–
0.09 µM	CC(C)(C)CC[C@H](NC(=O)c1cc(Cl)c[nH]1)C(=O)O	half-life [2]: 1.5 h; CL free [3]: 134 mL/min/kg; solubility [4]: 135 µM (≈ 38.7 µg/mL); efflux ratio (P-gp [5]): 1.3; clearance [6]: 2.8 mL/min/kg; IC50 (Sortilin/Progranulin [7]): 0.29 µM; efflux ratio (P-gp [8]): 2; fraction unbound [9]: 0.0216; solubility [10]: 123 µM (≈ 35.3 µg/mL); Papp [12]: 4.8 ×10⁻⁶ cm/s
0.065 µM	CC(C)(C)C[C@H](NC(=O)c1ccc(Oc2ccccc2)nc1)C(=O)O	–
> 67 µM	CC(C)c1cc(C(=O)O)n(CCc2ccccc2)n1	–
0.02 µM	CC(C)(C)CC[C@H](NC(=O)c1ccc(Oc2ccccc2)nc1)C(=O)O	half-life [2]: 1.6 h; CL free [3]: 453 mL/min/kg; solubility [4]: 147 µM (≈ 52.4 µg/mL); efflux ratio (P-gp [5]): 3.5; clearance [6]: 3.35 mL/min/kg; IC50 (Sortilin/Progranulin [7]): 0.12 µM; efflux ratio (P-gp [8]): 2.2; fraction unbound [9]: 0.0077; solubility [10]: 126 µM (≈ 44.9 µg/mL); Papp [12]: 7 ×10⁻⁶ cm/s
> 67 µM	O=C(N[C@@H](Cc1ccccc1)C(=O)O)c1cc(Cl)cc(Cl)c1	–
> 67 µM	CC(OC(C)(C)C)[C@H](NC(=O)c1cc(Cl)cc(Cl)c1)C(=O)O (stereo not given in full)	–
4.5 µM	CC(C)C[C@H](NC(=O)c1cccc(Cl)c1)C(=O)O	–
2.7 µM	CC(C)C[C@H](NC(=O)c1cc(Cl)cc(Cl)c1)C(=O)O	–
3 µM	CC(C)(C)c1cc(C(=O)O)n(Cc2ccc(-n3cccn3)nc2)n1	–
0.49 µM	CC(C)(C)c1cc(C(=O)O)n(Cc2nnc(-c3ccccc3)o2)n1	–
